Measurements published in PubChem BioAssay (NCI).
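Briefly, cells in 96-well plates were exposed to five compound concentrations for 48 h, and endpoints were estimated by linear interpolation. GI50 marks 50% less growth. TGI: total growth inhibition.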

Legend:
Test in all cases: NCI-60 cell line screen, 48 h
UO-31 renal = tested on: UO-31 renal
SF-295 CNS = tested on: SF-295 CNS
NCI-H460 lung = tested on: NCI-H460 lung
EKVX NSCLC = tested on: EKVX NSCLC
NCI-H23 lung = tested on: NCI-H23 lung
HCT-15 colon = tested on: HCT-15 colon
UACC-62 melanoma = tested on: UACC-62 melanoma
SK-MEL-5 melanoma = tested on: SK-MEL-5 melanoma
786-0 renal = tested on: 786-0 renal
HCT-116 colon = tested on: HCT-116 colon
HT29 colon = tested on: HT29 colon
SW-620 colon = tested on: SW-620 colon
OVCAR-5 ovarian = tested on: OVCAR-5 ovarian
TK-10 renal = tested on: TK-10 renal
MALME-3M melanoma = tested on: MALME-3M melanoma
NCI/ADR-RES ovarian = tested on: NCI/ADR-RES ovarian
SR leukemia = tested on: SR leukemia
HL-60(TB) leukemia = tested on: HL-60(TB) leukemia
MDA-MB-231 breast = tested on: MDA-MB-231 breast
OVCAR-3 ovarian = tested on: OVCAR-3 ovarian
SK-MEL-28 melanoma = tested on: SK-MEL-28 melanoma
MDA-MB-435 = tested on: MDA-MB-435
KM12 colon = tested on: KM12 colon
T-47D breast = tested on: T-47D breast
A498 renal = tested on: A498 renal
BT-549 breast = tested on: BT-549 breast
SK-MEL-2 melanoma = tested on: SK-MEL-2 melanoma
MOLT-4 leukemia = tested on: MOLT-4 leukemia
SF-539 CNS = tested on: SF-539 CNS
LOX IMVI melanoma = tested on: LOX IMVI melanoma
A549 NSCLC = tested on: A549 NSCLC
M14 melanoma = tested on: M14 melanoma
U251 CNS = tested on: U251 CNS
NCI-H226 lung = tested on: NCI-H226 lung
SN12C renal = tested on: SN12C renal
NCI-H522 lung = tested on: NCI-H522 lung
PC-3 prostate = tested on: PC-3 prostate
OVCAR-4 ovarian = tested on: OVCAR-4 ovarian
HOP-92 NSCLC = tested on: HOP-92 NSCLC
IGROV1 ovarian = tested on: IGROV1 ovarian
SF-268 CNS = tested on: SF-268 CNS
OVCAR-8 ovarian = tested on: OVCAR-8 ovarian
UACC-257 melanoma = tested on: UACC-257 melanoma
SK-OV-3 ovarian = tested on: SK-OV-3 ovarian
HCC-2998 colon = tested on: HCC-2998 colon
ACHN renal = tested on: ACHN renal
CCRF-CEM leukemia = tested on: CCRF-CEM leukemia
SNB-75 CNS = tested on: SNB-75 CNS
HOP-62 NSCLC = tested on: HOP-62 NSCLC
DU-145 prostate = tested on: DU-145 prostate
HS 578T breast = tested on: HS 578T breast
RXF 393 renal = tested on: RXF 393 renal
SNB-19 CNS = tested on: SNB-19 CNS
MCF7 breast = tested on: MCF7 breast

O=C(Nc1ccc(S(=O)(=O)NC2CCCCCC2)cc1)C(c1ccccc1)S(=O)(=O)c1ccc(F)cc1 (stereo not drawn)
GI50 (UO-31 renal): 202 nM | TGI (UO-31 renal): 3520 nM | GI50 (SF-295 CNS): 349 nM | TGI (SF-295 CNS): 2920 nM | GI50 (NCI-H460 lung): 36.7 nM | TGI (NCI-H460 lung): 1100 nM | GI50 (EKVX NSCLC): 377 nM | TGI (EKVX NSCLC): 2950 nM | GI50 (NCI-H23 lung): 187 nM | TGI (NCI-H23 lung): 933 nM | GI50 (HCT-15 colon): 182 nM | TGI (HCT-15 colon): 2080 nM | GI50 (UACC-62 melanoma): 137 nM | TGI (UACC-62 melanoma): 690 nM | GI50 (SK-MEL-5 melanoma): 404 nM | TGI (SK-MEL-5 melanoma): 1720 nM | GI50 (786-0 renal): 448 nM | TGI (786-0 renal): 2680 nM | GI50 (HCT-116 colon): 185 nM | TGI (HCT-116 colon): 1700 nM | GI50 (HT29 colon): 214 nM | TGI (HT29 colon): 1560 nM | GI50 (SW-620 colon): 84 nM | TGI (SW-620 colon): 1980 nM | GI50 (OVCAR-5 ovarian): 374 nM | TGI (OVCAR-5 ovarian): 3150 nM | GI50 (TK-10 renal): 331 nM | TGI (TK-10 renal): 3660 nM | GI50 (MALME-3M melanoma): 250 nM | TGI (MALME-3M melanoma): 1810 nM | GI50 (NCI/ADR-RES ovarian): 1240 nM | TGI (NCI/ADR-RES ovarian): 4660 nM | GI50 (SR leukemia): 410 nM | TGI (SR leukemia): 4420 nM | GI50 (HL-60(TB) leukemia): 357 nM | TGI (HL-60(TB) leukemia): 2510 nM | GI50 (MDA-MB-231 breast): 350 nM | TGI (MDA-MB-231 breast): 1940 nM | GI50 (OVCAR-3 ovarian): 367 nM | TGI (OVCAR-3 ovarian): 2850 nM | GI50 (SK-MEL-28 melanoma): 245 nM | TGI (SK-MEL-28 melanoma): 1020 nM | GI50 (MDA-MB-435): 313 nM | TGI (MDA-MB-435): 1430 nM | GI50 (KM12 colon): 321 nM | TGI (KM12 colon): 1960 nM | GI50 (T-47D breast): 717 nM | TGI (T-47D breast): 4830 nM | GI50 (A498 renal): 870 nM | TGI (A498 renal): 2080 nM | GI50 (BT-549 breast): 348 nM | TGI (BT-549 breast): 1610 nM | GI50 (SK-MEL-2 melanoma): 449 nM | TGI (SK-MEL-2 melanoma): 2080 nM | GI50 (MOLT-4 leukemia): 432 nM | TGI (MOLT-4 leukemia): > 100000 nM | GI50 (SF-539 CNS): 389 nM | TGI (SF-539 CNS): 1880 nM | GI50 (LOX IMVI melanoma): 112 nM | TGI (LOX IMVI melanoma): 422 nM | GI50 (A549 NSCLC): 854 nM | TGI (A549 NSCLC): 2900 nM | GI50 (M14 melanoma): 514 nM | TGI (M14 melanoma): 2550 nM | GI50 (U251 CNS): 510 nM | TGI (U251 CNS): 3570 nM | GI50 (NCI-H226 lung): 390 nM | TGI (NCI-H226 lung): 3430 nM | GI50 (SN12C renal): 371 nM | TGI (SN12C renal): 1810 nM | GI50 (NCI-H522 lung): 318 nM | TGI (NCI-H522 lung): 2940 nM | GI50 (PC-3 prostate): 295 nM | TGI (PC-3 prostate): 2190 nM | GI50 (OVCAR-4 ovarian): 444 nM | TGI (OVCAR-4 ovarian): 4160 nM | GI50 (HOP-92 NSCLC): 845 nM | TGI (HOP-92 NSCLC): 3900 nM | GI50 (IGROV1 ovarian): 237 nM | TGI (IGROV1 ovarian): 2890 nM | GI50 (SF-268 CNS): 933 nM | TGI (SF-268 CNS): 6110 nM | GI50 (OVCAR-8 ovarian): 702 nM | TGI (OVCAR-8 ovarian): 4680 nM | GI50 (UACC-257 melanoma): 621 nM | TGI (UACC-257 melanoma): 2980 nM | GI50 (SK-OV-3 ovarian): 335 nM | TGI (SK-OV-3 ovarian): 4030 nM | GI50 (HCC-2998 colon): 868 nM | TGI (HCC-2998 colon): 2350 nM | GI50 (ACHN renal): 153 nM | TGI (ACHN renal): 491 nM | GI50 (CCRF-CEM leukemia): 577 nM | TGI (CCRF-CEM leukemia): > 100000 nM | GI50 (SNB-75 CNS): 508 nM | TGI (SNB-75 CNS): 2170 nM | GI50 (HOP-62 NSCLC): 970 nM | TGI (HOP-62 NSCLC): 3860 nM | GI50 (DU-145 prostate): 261 nM | TGI (DU-145 prostate): 2680 nM | GI50 (HS 578T breast): 588 nM | TGI (HS 578T breast): 3050 nM | GI50 (RXF 393 renal): 217 nM | TGI (RXF 393 renal): 562 nM | GI50 (SNB-19 CNS): 622 nM | TGI (SNB-19 CNS): 37200 nM | GI50 (MCF7 breast): 124 nM | TGI (MCF7 breast): 1610 nM
